# Read-outs that look alike come from different tables or passages of the source.
# Tests used:
# [1] = molecular target: ALK1 (ACVRL1) (Homo sapiens (Human), UniProt P37023); assay: In vitro kinase assay, ALK1; type: biochemical; conditions: 10 μM ATP; read-out: Inhibition of ALK1 IC50
# [2] = molecular target: ALK2 (ACVR1) (Homo sapiens (Human), UniProt Q04771); assay: In vitro kinase assay, ALK2; type: biochemical; conditions: read-out: Inhibition of ALK2 IC50
# [3] = molecular target: ALK3 (BMPR1A) (Homo sapiens (Human), UniProt P36894); assay: In vitro kinase assay, ALK3; type: biochemical; conditions: 10 μM ATP; read-out: Inhibition of ALK3 IC50
# Chain of ALK3 (BMPR1A) (P36894 24-532): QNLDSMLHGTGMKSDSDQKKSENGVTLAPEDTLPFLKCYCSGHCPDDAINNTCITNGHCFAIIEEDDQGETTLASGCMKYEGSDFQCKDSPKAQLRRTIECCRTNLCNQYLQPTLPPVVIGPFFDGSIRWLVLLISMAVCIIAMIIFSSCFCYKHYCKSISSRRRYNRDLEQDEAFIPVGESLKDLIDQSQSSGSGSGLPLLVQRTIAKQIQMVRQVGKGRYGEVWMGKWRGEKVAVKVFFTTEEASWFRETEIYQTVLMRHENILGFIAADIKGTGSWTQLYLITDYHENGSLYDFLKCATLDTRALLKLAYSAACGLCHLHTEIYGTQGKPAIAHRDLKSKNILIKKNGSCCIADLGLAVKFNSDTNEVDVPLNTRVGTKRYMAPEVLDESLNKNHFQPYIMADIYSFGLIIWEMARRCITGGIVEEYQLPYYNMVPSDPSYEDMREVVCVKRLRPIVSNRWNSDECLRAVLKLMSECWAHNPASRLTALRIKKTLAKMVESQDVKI
# [4] = molecular target: ALK4 (ACVR1B) (Homo sapiens (Human), UniProt P36896); assay: In vitro kinase assay, ALK4; type: biochemical; conditions: 10 μM ATP; read-out: Inhibition of ALK4 IC50
# Chain of ALK4 (ACVR1B) (P36896 24-505): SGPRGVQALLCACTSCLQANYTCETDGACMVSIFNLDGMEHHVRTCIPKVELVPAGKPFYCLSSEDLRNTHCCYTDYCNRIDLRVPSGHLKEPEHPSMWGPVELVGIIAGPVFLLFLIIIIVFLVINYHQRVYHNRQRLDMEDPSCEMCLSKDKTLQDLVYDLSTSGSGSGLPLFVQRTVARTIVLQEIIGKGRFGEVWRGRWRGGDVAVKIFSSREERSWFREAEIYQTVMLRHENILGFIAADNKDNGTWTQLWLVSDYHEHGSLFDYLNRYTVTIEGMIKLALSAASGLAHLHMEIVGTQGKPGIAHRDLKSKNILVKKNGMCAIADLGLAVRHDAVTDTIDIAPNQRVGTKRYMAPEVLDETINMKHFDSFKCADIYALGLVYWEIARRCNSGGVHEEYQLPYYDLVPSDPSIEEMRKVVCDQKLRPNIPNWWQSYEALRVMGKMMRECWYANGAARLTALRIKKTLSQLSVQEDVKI
# [5] = molecular target: ALK5 (TGFBR1) (Homo sapiens (Human), UniProt P36897); assay: In vitro kinase assay, ALK5; type: biochemical; conditions: 10 μM ATP; read-out: Inhibition of ALK5 IC50
# Chain of ALK5 (TGFBR1) (P36897 34-503): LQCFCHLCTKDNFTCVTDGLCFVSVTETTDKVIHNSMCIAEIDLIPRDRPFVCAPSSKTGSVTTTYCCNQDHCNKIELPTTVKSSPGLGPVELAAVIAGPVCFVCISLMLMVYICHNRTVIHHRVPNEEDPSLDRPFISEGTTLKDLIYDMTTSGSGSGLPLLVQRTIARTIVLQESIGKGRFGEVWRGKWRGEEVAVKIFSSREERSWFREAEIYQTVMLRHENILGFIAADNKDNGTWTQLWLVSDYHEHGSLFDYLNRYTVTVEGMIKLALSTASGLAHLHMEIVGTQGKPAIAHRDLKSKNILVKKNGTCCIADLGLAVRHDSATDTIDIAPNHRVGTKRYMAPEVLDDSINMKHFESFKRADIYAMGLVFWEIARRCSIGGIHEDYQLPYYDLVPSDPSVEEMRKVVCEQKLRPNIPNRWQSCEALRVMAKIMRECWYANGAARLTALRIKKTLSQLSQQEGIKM
# [6] = molecular target: ALK6 (BMPR1B) (Homo sapiens (Human), UniProt O00238); assay: In vitro kinase assay, ALK6; type: biochemical
# Chain of ALK6 (BMPR1B) (O00238 14-502): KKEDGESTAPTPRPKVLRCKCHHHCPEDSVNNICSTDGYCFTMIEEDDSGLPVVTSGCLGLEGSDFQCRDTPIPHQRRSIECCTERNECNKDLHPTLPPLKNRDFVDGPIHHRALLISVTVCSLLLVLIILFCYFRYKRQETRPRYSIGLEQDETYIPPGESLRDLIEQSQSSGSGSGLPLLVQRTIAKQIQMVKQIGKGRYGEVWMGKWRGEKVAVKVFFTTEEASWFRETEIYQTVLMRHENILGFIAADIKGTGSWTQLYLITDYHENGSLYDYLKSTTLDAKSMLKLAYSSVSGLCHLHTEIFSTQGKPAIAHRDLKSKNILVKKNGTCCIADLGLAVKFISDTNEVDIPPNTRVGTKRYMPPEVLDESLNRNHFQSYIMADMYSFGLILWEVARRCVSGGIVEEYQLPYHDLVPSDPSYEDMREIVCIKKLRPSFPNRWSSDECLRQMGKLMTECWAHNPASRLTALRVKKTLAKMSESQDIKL
# [7] = tested on: p-SMAD2; assay: p-SMAD2 inhibition, Western Blot Analysis in TGFβ-stimulated MDA-MB-231 cells; type: cell-based; conditions: Homo sapiens, TGFβ 2 ng/mL, triplicate; for inhibition at 0.1 µM: 0.1 μM compound, read-out: Average p-SMAD2 inhibition @ 0.1 μM (% Inh)
# [8] = Pharmacokinetics and bioavailability in male mice after a single dose; type: in vivo; conditions: for half-life: read-out: Terminal t1/2 (converted)
# [9] = 10 μM ATP, read-out: Inhibition of ALK6 IC50
# [10] = mouse, plasma, intravenous, 2 mg/kg
# Chain of ALK1 (ACVRL1) (P37023 22-503): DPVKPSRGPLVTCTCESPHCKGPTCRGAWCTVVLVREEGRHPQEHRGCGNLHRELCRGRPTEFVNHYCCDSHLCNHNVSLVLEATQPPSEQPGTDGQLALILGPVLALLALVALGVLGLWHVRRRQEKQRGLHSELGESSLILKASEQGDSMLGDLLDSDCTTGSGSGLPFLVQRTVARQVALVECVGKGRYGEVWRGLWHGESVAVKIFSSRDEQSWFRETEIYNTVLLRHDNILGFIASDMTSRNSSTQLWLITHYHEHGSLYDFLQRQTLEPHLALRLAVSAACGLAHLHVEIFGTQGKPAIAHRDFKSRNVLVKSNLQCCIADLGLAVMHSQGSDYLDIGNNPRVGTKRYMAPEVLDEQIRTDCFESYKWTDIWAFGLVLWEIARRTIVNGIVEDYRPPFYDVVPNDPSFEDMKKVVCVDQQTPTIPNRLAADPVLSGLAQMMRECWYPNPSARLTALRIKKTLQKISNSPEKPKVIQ
# Chain of ALK2 (ACVR1) (Q04771 21-509): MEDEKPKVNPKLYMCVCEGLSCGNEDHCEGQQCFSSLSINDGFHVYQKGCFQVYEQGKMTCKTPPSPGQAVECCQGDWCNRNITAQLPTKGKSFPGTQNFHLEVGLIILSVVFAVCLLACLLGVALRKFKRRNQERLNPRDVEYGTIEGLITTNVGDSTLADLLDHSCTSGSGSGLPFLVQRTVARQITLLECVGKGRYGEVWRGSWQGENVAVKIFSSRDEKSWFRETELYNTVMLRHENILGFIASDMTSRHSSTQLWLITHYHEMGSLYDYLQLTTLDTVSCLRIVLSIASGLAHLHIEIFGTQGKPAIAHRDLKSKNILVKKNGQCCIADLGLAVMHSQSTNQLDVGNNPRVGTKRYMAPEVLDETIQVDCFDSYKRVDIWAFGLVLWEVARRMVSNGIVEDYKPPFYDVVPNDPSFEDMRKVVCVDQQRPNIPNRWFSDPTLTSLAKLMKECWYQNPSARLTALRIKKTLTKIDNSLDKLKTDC
Compound,IC50 [1] [µM],IC50 ([2]; 10 μM ATP) [µM],IC50 [3] [µM],"IC50 [6, 9] [µM]",other results
"CC(O)CNC(=O)c1c[nH]nc1Nc1cc(-c2cc(Cl)ccc2F)ncc1C(C)C (single isomer, unassigned) [21a, 3-[[2-(5-chloro-2-fluoro-phenyl)-5-isopropyl-4-pyridyl]amino]-N-(2-hydroxypropyl)-1H-pyrazole-4-carboxamide]",> 100,> 1000,> 1000,–,IC50 [4]: > 1 mM; IC50 [5]: > 100 µM; IC50 [6]: > 1000 µM
"C=C(C)c1cnc(-c2cc(Cl)ccc2F)cc1Nc1ccncc1C(=O)N[C@@H](CC)CO (single isomer, unassigned) [24a]",> 100,> 100,> 100,> 100,–
"C=Cc1cnc(-c2cc(Cl)ccc2F)cc1Nc1ccncc1C(=O)NC[C@H](C)O [10a, (S)-4-(2-(5-chloro-2-fluorophenyl)-5-vinylpyridin-4-ylamino)-N-(2-hydroxypropyl)nicotinamide]",–,–,–,–,inhibition at 0.1 µM [7]: 0%
"C=C(C)c1cnc(-c2cc(Cl)ccc2F)cc1Nc1ccncc1C(=O)NC(C)(C)CO [compound 8, 4-[[2-(5-chloro-2-fluoro-phenyl)-5-isopropenyl-4-pyridyl]amino]-N-(2-hydroxy-1,1-dimethyl-ethyl)pyridine-3-carboxamide]",> 100,–,> 100,–,"IC50 [2]: > 100 µM; V ([8]; intravenous, 2 mg/kg): 14.9 L/kg; AUC(0-t) [8, 10]: 0.709 µM·h; Cmax [8, 10]: 1240 nM; clearance [8, 10]: 103 mL/min/kg; half-life [8, 10]: 101 min; AUC(0-t) ([8]; mouse, plasma, oral, 10 mg/kg): 1.31 µM·h; Cmax ([8]; mouse, plasma, oral, 10 mg/kg): 1060 nM; Tmax ([8]; mouse, plasma, oral, 10 mg/kg): 15 min; bioavailability ([8]; mouse, plasma, oral, 10 mg/kg): 36.9%; half-life ([8]; mouse, plasma, oral, 10 mg/kg): 75.6 min"
"CC(C)c1cnc(-c2cc(Cl)ccc2F)cc1Nc1ccncc1C(=O)N1CCC(O)CC1 [compound 9, [4-[[2-(5-chloro-2-fluoro-phenyl)-5-isopropyl-4-pyridyl]amino]-3-pyridyl]-(4-hydroxy-1-piperidyl)methanone]",–,–,–,–,"inhibition at 0.1 µM [7]: 6%; inhibition at 0.5 µM ([7]; 0.5 μM compound, read-out: Average p-SMAD2 inhibition @ 0.5 μM (% Inh)): 12.7%"
"CC(C)c1cnc(-c2ccccc2)cc1Nc1ccncc1C(=O)NC[C@H](C)O [compound 28, N-(2-hydroxypropyl)-4-[(5-isopropyl-2-phenyl-4-pyridyl)amino]pyridine-3-carboxamide]",> 100,> 1000,> 1000,> 1000,–
"C[C@H](O)CNC(=O)c1cnccc1Nc1cc(-c2cc(Cl)ccc2F)ncc1C1CC1 [compound 31, 4-{[2-(5-chloro-2-fluorophenyl)-5-cyclopropylpyridin-4-yl]amino}-N-[(2S)-2-hydroxypropyl]pyridine-3-carboxamide]",> 10,> 10,> 10,> 10,–

# — patent US10030004B2, “Compounds and methods of use” (Medivation Technologies LLC, priority 2014, dated 2018)
